For 17 compounds, IC50 results are on record in ChEMBL document CHEMBL1136136, “Formylchromone derivatives as a novel class of protein tyrosine phosphatase 1B inhibitors” (Bioorg Med Chem Lett, 2003).

The target in experiment [1] is T1, Tyrosine-protein phosphatase non-receptor type 2 (Homo sapiens, UniProt P17706).
T1 sequence (P17706 whole entry): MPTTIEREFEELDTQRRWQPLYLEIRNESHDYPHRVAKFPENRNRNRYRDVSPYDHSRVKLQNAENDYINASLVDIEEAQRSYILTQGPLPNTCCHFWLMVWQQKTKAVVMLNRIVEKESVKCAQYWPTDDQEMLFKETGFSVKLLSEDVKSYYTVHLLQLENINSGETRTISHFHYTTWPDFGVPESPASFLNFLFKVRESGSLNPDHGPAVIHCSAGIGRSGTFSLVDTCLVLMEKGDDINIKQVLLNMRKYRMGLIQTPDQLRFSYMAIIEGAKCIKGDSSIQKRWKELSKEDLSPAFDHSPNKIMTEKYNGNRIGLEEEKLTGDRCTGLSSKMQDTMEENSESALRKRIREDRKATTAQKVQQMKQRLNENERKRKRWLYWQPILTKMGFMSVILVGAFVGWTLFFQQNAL
Nature of the experiment: Compound was tested for selectivity against human T cell protein tyrosine phosphatase. Format: cell-based.

For experiment [2], the target named is T2, Tyrosine-protein phosphatase non-receptor type 1 (Homo sapiens, UniProt P18031).
T2 sequence (P18031 whole entry): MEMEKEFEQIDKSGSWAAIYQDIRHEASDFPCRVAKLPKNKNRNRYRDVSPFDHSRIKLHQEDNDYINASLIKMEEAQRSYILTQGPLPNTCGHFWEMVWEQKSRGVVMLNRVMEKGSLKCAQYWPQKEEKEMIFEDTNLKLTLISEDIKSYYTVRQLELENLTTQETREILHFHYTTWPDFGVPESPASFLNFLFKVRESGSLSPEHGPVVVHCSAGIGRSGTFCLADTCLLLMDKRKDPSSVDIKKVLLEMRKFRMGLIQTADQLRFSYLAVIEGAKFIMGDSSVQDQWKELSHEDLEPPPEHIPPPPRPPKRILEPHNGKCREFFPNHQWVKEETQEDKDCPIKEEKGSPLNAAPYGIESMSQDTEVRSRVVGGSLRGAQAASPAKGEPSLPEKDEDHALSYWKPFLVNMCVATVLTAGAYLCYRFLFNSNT
The experiment in a line: Inhibition of human Protein-tyrosine phosphatase 1B.

Experiment [3] addresses Receptor-type tyrosine-protein phosphatase F (Homo sapiens, UniProt P10586). Nature of the experiment: Compound was tested for selectivity against LAR.

Chain of Receptor-type tyrosine-protein phosphatase F (P10586 whole entry): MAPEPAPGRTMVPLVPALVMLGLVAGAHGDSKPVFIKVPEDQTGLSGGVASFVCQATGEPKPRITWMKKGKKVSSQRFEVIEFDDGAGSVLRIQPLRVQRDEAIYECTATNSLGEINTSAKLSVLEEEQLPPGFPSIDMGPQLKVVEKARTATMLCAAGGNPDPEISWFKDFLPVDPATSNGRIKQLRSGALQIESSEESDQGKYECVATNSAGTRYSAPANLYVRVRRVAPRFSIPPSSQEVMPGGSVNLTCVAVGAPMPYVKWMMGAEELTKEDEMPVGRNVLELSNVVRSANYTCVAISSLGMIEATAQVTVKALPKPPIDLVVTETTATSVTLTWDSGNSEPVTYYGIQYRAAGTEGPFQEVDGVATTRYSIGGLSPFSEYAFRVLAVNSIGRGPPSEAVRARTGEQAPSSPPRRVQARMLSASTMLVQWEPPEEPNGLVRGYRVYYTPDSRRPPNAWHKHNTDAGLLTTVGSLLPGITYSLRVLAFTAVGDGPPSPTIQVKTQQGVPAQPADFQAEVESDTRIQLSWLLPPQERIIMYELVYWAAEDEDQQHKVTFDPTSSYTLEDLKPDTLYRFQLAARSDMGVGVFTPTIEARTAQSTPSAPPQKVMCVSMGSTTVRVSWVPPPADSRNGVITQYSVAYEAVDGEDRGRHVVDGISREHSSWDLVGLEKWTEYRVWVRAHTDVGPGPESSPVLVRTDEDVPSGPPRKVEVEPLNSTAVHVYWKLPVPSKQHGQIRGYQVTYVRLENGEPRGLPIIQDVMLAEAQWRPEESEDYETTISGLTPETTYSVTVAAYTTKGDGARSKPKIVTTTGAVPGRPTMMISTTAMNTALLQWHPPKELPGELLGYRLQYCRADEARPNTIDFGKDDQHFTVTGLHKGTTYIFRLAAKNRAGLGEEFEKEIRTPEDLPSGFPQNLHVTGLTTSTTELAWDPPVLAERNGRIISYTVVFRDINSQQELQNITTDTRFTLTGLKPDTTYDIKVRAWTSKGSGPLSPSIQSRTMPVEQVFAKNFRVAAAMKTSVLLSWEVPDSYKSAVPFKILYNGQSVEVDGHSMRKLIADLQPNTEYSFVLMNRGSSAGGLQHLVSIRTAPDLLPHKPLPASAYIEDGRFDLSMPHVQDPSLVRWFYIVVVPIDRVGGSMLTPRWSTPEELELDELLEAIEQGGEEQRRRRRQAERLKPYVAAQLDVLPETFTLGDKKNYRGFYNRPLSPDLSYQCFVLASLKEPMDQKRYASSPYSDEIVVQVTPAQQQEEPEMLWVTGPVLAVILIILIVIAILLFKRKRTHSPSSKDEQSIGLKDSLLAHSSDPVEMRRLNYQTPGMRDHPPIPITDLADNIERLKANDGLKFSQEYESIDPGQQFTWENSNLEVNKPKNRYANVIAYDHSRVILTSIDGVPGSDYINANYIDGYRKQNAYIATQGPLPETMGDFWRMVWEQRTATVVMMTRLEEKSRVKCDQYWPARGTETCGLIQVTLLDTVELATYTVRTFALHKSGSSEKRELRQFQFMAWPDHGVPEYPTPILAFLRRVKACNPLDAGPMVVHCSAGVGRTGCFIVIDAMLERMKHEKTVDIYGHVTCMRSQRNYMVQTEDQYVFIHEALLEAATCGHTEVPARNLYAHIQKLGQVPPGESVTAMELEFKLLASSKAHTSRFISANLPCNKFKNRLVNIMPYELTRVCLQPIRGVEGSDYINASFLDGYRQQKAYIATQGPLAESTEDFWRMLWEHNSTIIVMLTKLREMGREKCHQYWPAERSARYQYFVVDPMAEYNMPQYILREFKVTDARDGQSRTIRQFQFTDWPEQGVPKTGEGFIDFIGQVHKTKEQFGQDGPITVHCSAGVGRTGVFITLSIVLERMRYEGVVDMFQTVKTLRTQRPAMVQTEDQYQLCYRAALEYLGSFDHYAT

For the compound `O=Cc1coc2ccc(-c3ccccc3)cc2c1=O`, the IC50 (as a rule, the concentration that gives 50% inhibition) in experiment [1] is 240 µM; in experiment [2] it was 14 µM; in experiment [3], greater than 1 mM.

In turn, `O=Cc1coc2ccc(Cl)cc2c1=O` gave an IC50 in experiment [2] of 28 µM.

As for `O=Cc1coc2c(Br)cc(Br)cc2c1=O`, the midpoint of inhibition in experiment [2], the IC50, lay at 20 µM.

In turn, `O=Cc1coc2ccc(Br)cc2c1=O` yielded an IC50 in experiment [2] of 20 µM.

As for `O=Cc1coc2ccc(-c3ccc(-c4ccccc4)cc3)cc2c1=O`, the IC50 in experiment [1] is 51 µM; in experiment [2], 4.3 µM; in experiment [3] it was greater than 1 mM.

`O=C(O)c1cc(=O)c2ccccc2o1` [CHROMOCARB]: the half-inhibitory concentration (IC50) in experiment [2] was greater than 1000 µM.

`Cc1cc2occ(C=O)c(=O)c2cc1Cl` returned an IC50 in experiment [2] of 18 µM.

`Nc1oc2ccccc2c(=O)c1C=O` returned a concentration for half-maximal inhibition (IC50) in experiment [2] greater than 1000 µM.

As to `O=C(O)c1cc2ccccc2oc1=O` [COUMARIN-3-CARBOXYLIC ACID], in experiment [2], the IC50 is greater than 1000 µM.

As for `O=Cc1coc2c(ccc3ccccc32)c1=O`, in experiment [2], the IC50 amounted to 25 µM.

Consider `O=Cc1coc2ccc3ccccc3c2c1=O`, for which the IC50 in experiment [1] is 780 µM; in experiment [2], 14 µM; in experiment [3], greater than 1 mM.

`O=C(O)c1coc2ccccc2c1=O` gave an IC50 in experiment [2] greater than 1000 µM.

`O=Cc1coc2c(Cl)cc(Cl)cc2c1=O` yielded a half-inhibitory concentration (IC50) in experiment [2] of 25 µM.

Take `O=Cc1coc2ccccc2c1=O`: the half-maximal inhibitory concentration (IC50) in experiment [2] was 73 µM.

`CC(C)c1ccc2occ(C=O)c(=O)c2c1`: in experiment [2], the concentration for half-maximal inhibition (IC50) was determined as 22 µM.

For `O=Cc1coc2ccc([N+](=O)[O-])cc2c1=O`, in experiment [2], the half-inhibitory concentration (IC50) stood at 91 µM.

As to `O=Cc1coc2ccc(F)cc2c1=O`, in experiment [2], the half-inhibitory concentration (IC50) worked out at 55 µM.
